Laboratory results: patent publication US20040077754A1, “Dental materials based on acrylic-ester phosphonic acids” (priority 2002, published 2004)

Conditions: 20% solution in D2O/EtOH-d6 (1:1), stabilized with 200 ppm 2,6-di-tbutyl-4-methylphenol, stored at 37° C., standing time 2 months
Protocol: In connection with the present invention, compounds which are stable in water or in mixtures of water and water-miscible solvents in a concentration of approx. 20 wt.-% and a pH value of approx. 2.0 at 37° C. for at least 6 weeks, i.e. hydrolyze to less than 1%, are described as hydrolysis-stable.
A 20% solution of MAPA, stabilized with 200 ppm 2,6-di-tbutyl-4-methylphenol, was prepared in D2O/EtOH-d6 (1:1), stored at 37° C. and ^1H-NMR-spectroscopically examined. After a standing time of 2 months, no changes in the ^1H-NMR-spectrum were able to be detected.

C=C(COCCP(=O)(O)O)C(=O)Oc1c(C)cc(C)cc1C [MAPA]
Hydrolysis stability: changes in the 1H-NMR spectrum: no changes
